Measured values published in patent publication US9108972B2, “Salts of DPP-IV inhibitor” (Cadila Healthcare Limited, priority 2011, dated 2015).

Legend:
[1] = Stability of the novel salts versus free base (statement, no method given); format: physicochemical; details: compared with the free base; no conditions given
[2] = system: male C57BLKS/J mice; test: Oral glucose tolerance test (OGTT) in male C57 mice; format: in vivo; details: for efficacy compared with crystalline monohydrate phosphate salt (SP): acute oral glucose tolerance test in C57 mice, 10 mg/kg PO; for % change in AUC glucose: single dose 10 mg/kg PO with glucose load 3 g/kg, male C57 mice fasted 18 h, AUC for 120 min, vs vehicle control
Procedure: Eight to ten weeks old male C57BLKS/J mice obtained from Animal Research Facility of Zydus Research Centre were used. The mice were allowed ad libitum access to chow and water. Animals were on a 12-hour light, 12-hour dark cycle. Protocol for use of animals for conducting this study has been reviewed and approved by Institutional Animal Ethics Committee (IAEC).
Oral glucose tolerance test (OGTT) was performed on these animals. The mice were deprived of food for 18 h and then drug or vehicles were administered with a glucose load (3 g/kg) by oral route. Blood (200 μL) samples were collected at 0, 30, 60, 120 and 240 min. Serum glucose concentrations were determined using commercially available kits purchased from RFCL (New Delhi, India) using spectrophotometric assay. […] The area under the curve for 120 min was calculated, based on which the percentage inhibition was obtained for each treatment.

[3] = Stability study on storage (25° C. ± 2° C./60% ± 5% RH) for 3 months
[4] = After 3 Month storage at 25° C. ± 2° C./60% ± 5% RH
[5] = After 3 Month storage at 25° C. ± 2° C./60% ± 5% RH, listed as besylate crystalline(II)
[6] = Initial, listed as besylate crystalline(II)
[7] = After 3 Month storage at 25° C. ± 2° C./60% ± 5% RH, listed as besylate amorphous
[8] = Initial, listed as besylate amorphous

(2R)-4-oxo-4-[3-(trifluoromethyl)-5,6-dihydro[1,2,4]triazolo[4,3-a]pyrazin-7(8H)-yl]-1-(2,4,5-trifluorophenyl)butan-2-amine gentisate [SG]
stability of the salt [1]: very stable | efficacy compared with crystalline monohydrate phosphate salt (SP) [2]: better than | % change in AUC glucose [2]: −39.4 ± 1.8%

N[C@@H](CC(=O)N1CCn2c(nnc2C(F)(F)F)C1)Cc1cc(F)c(F)cc1F [SB, (2R)-4-oxo-4-[3-(trifluoromethyl)-5,6-dihydro[1,2,4]triazolo[4,3-a]pyrazin-7(8H)-yl]-1-(2,4,5-trifluorophenyl)butan-2-amine, reference compound]
% change in AUC glucose [2]: −36.5 ± 1.6%

N[C@@H](CC(=O)N1CCn2c(nnc2C(F)(F)F)C1)Cc1cc(F)c(F)cc1F.O=C(O)C(F)(F)F [TFA salt, Trifluoroacetic acid salt of (2R)-4-oxo-4-[3-(trifluoromethyl)-5,6-dihydro[1,2,4]triazolo[4,3-a]pyrazin-7(8H)-yl]-1-(2,4,5-trifluorophenyl)butan-2-amine]
Description [3, 4]: white colored powder | Polymorphism XRD [3, 4]: No Change | Purity (By HPLC) [3, 4]: 97.5% | Water (by KFR) [3, 4]: 3.45% | Description ([3]; Initial): white colored powder | Polymorphism XRD ([3]; Initial): Crystalline pattern | Purity (By HPLC) ([3]; Initial): 97.89% | Water (by KFR) ([3]; Initial): 2.77%

N[C@@H](CC(=O)N1CCn2c(nnc2C(F)(F)F)C1)Cc1cc(F)c(F)cc1F.O=C(O)CCCCC(=O)O [adipate, adipic acid salt of (2R)-4-oxo-4-[3-(trifluoromethyl)-5,6-dihydro[1,2,4]triazolo[4,3-a]pyrazin-7(8H)-yl]-1-(2,4,5-trifluorophenyl)butan-2-amine]
stability of the salt [1]: very stable

N[C@@H](CC(=O)N1CCn2c(nnc2C(F)(F)F)C1)Cc1cc(F)c(F)cc1F.O=S(=O)(O)c1ccccc1 [SBII, crystalline besylate salt(II) of (2R)-4-oxo-4-[3-(trifluoromethyl)-5,6-dihydro[1,2,4]triazolo[4,3-a]pyrazin-7(8H)-yl]-1-(2,4,5-trifluorophenyl)butan-2-amine]
Polymorphism XRD [3, 4]: No Change | Description [3, 5]: Off white colored | Purity (By HPLC) [3, 5]: 99.97% | Water (by KFR) [3, 5]: 2.90% | Description ([3]; Initial): white colored powder | Polymorphism XRD [3, 6]: Crystalline pattern | Purity (By HPLC) [3, 6]: 99.87% | Water (by KFR) [3, 6]: 2.77% | efficacy compared with crystalline monohydrate phosphate salt (SP) [2]: better than | % change in AUC glucose ([2]; 10 mg/kg): −45.7 ± 1.5%

N[C@@H](CC(=O)N1CCn2c(nnc2C(F)(F)F)C1)Cc1cc(F)c(F)cc1F.O=S(=O)(O)c1ccccc1 [SBa, amorphous besylate salt of (2R)-4-oxo-4-[3-(trifluoromethyl)-5,6-dihydro[1,2,4]triazolo[4,3-a]pyrazin-7(8H)-yl]-1-(2,4,5-trifluorophenyl)butan-2-amine]
Polymorphism XRD [3, 4]: No Change | Description [3, 7]: white colored powder | Purity (By HPLC) [3, 7]: 99.52% | Water (by KFR) [3, 7]: 3.14% | Description ([3]; Initial): white colored powder | Polymorphism XRD [3, 8]: amorphous pattern | Purity (By HPLC) [3, 8]: 99.41% | Water (by KFR) [3, 8]: 1.01% | efficacy compared with crystalline monohydrate phosphate salt (SP) [2]: better than | % change in AUC glucose ([2]; 10 mg/kg): −43.3 ± 1.6%

Cl.N[C@@H](CC(=O)N1CCn2c(nnc2C(F)(F)F)C1)Cc1cc(F)c(F)cc1F [Hydrochloride crystalline, hydrochloride salt of (2R)-4-oxo-4-[3-(trifluoromethyl)-5,6-dihydro[1,2,4]triazolo[4,3-a]pyrazin-7(8H)-yl]-1-(2,4,5-trifluorophenyl)butan-2-amine]
Description [3, 4]: white colored powder | Polymorphism XRD [3, 4]: No Change | Purity (By HPLC) [3, 4]: 99.91% | Water (by KFR) [3, 4]: 4.01% | Description ([3]; Initial): white colored powder | Polymorphism XRD ([3]; Initial): Crystalline pattern | Purity (By HPLC) ([3]; Initial): 99.82% | Water (by KFR) ([3]; Initial): 3.54%

N[C@@H](CC(=O)N1CCn2c(nnc2C(F)(F)F)C1)Cc1cc(F)c(F)cc1F.O=P(O)(O)O [SP, (2R)-4-oxo-4-[3-(trifluoromethyl)-5,6-dihydro[1,2,4]triazolo[4,3-a]pyrazin-7(8H)-yl]-1-(2,4,5-trifluorophenyl)butan-2-amine phosphate salt, reference compound]
% change in AUC glucose [2]: −31.9 ± 1.8%
